Assay results published in patent US4572908A, “Dihydropyridines” (Pfizer Inc., priority 1982, dated 1986).
pIC50: −log10 of the molar value.

System: rat aorta
Test: inhibition of calcium-induced contraction (change in tension) of spirally cut strips of rat aorta in K+ 45 mM saline
Assay type: cell-based
Details: 0.75 h, 45 millimolar potassium, 2 millimolar calcium, 45 minutes, read-out: IC50 (molar concentration required to reduce the response by 50%)
Experimental: The ability of the compounds to inhibit the movement of calcium into the cell is shown by their effectiveness in reducing the response of isolated heart tissue to an increase in calcium ion concentration in vitro. The test is performed by mounting spirally cut strips of rat aorta with one end fixed and the other attached to a force transducer. The tissue is immersed in a bath of physiological saline solution containing potassium ions at a concentration of 45 millimolar and no calcium. Calcium chloride is added to the bath with a pipette to give a final calcium ion concentration of 2 millimolar. The change in tension caused by the resulting contraction of the tissue is noted. The bath is drained and replaced with fresh saline solution and, after 45 minutes, the test is repeated with the particular compound under test present in the saline solution. The concentration of compound required to reduce the response by 50% (IC50) is recorded.
The molar concentrations of the compounds required to reduce the response by 50% in the test specified on pages 16-17 are given below (1M=1 gm.Mole/liter).

SMILES	pIC50
CCOC(=O)C1=C(COCCNc2noc(N)n2)NC(C)=C(C(=O)OC)C1c1cccc(C(F)(F)F)c1Cl (centres unmarked) [Example 7]	8.46
CCOC(=O)C1=C(COCCNc2ncnc3[nH]cnc23)NC(C)=C(C(=O)OC)C1c1ccccc1Cl (centres unmarked) [Example 16]	7.00
CCOC(=O)C1=C(COCCNc2nc(N)c3cc(OC)c(OC)cc3n2)NC(C)=C(C(=O)OC)C1c1cccc(Cl)c1Cl (centres unmarked) [Example 48]	7.53
CCOC(=O)C1=C(COCCNc2cc(OC)ncn2)NC(C)=C(C(=O)OC)C1c1cccc(Cl)c1Cl (centres unmarked) [Example 54]	8.92
CCOC(=O)C1=C(COCCNc2nc(C(=O)OCC)cs2)NC(C)=C(C(=O)OC)C1c1ccccc1Cl (centres unmarked) [Example 73]	8.36
CCOC(=O)C1=C(COCCNc2nc(C)cc(=O)[nH]2)NC(C)=C(C(=O)OC)C1c1ccccc1Cl (centres unmarked) [Example 24]	8.00
CCOC(=O)C1=C(COCCNc2ncccc2C(N)=O)NC(C)=C(C(=O)OC)C1c1ccccc1Cl (centres unmarked) [Example 25]	7.34
CCOC(=O)C1=C(COCCNc2nccnc2NC)NC(C)=C(C(=O)OC)C1c1cccc(Cl)c1Cl (centres unmarked) [Example 84]	8.30
CCOC(=O)C1=C(COCCNc2cc(N3CCCCC3)ncn2)NC(C)=C(C(=O)OC)C1c1ccccc1Cl (centres unmarked) [Example 85]	8.30
CCOC(=O)C1=C(COCCNc2ncc(O)c(C)n2)NC(C)=C(C(=O)OC)C1c1cccc(Cl)c1Cl (centres unmarked) [Example 91A, 4-(2,3-dichlorophenyl)-3-ethoxycarbonyl-2-[2-(5-hydroxy-4-methylpyrimidin-2-ylamino)ethoxymethyl]-5-methoxycarbonyl-6-methyl-1,4-dihydropyridine]	9.00
CCOC(=O)C1=C(COCCNC2=NC(=O)CS2)NC(C)=C(C(=O)OC)C1c1cccc(C(F)(F)F)c1Cl (centres unmarked) [Example 75]	8.15
CCOC(=O)C1=C(COCCNC2=NCCS2)NC(C)=C(C(=O)OC)C1c1ccccc1Cl (centres unmarked) [Example 70, 4-(2-Chlorophenyl)-3-ethoxycarbonyl-5-methoxycarbonyl-6-methyl-2-[2-(2-thiazolin-2-ylamino)ethoxymethyl]-1,4-dihydropyridine]	8.03
CCOC(=O)C1=C(COCCNc2nccc(=O)[nH]2)NC(C)=C(C(=O)OC)C1c1cccc(C(F)(F)F)c1Cl (centres unmarked) [Example 59]	8.43
CCOC(=O)C1=C(COCCNc2nccnc2Cl)NC(C)=C(C(=O)OC)C1c1ccccc1Cl (centres unmarked) [Example 32]	7.80
CCOC(=O)C1=C(COCCNc2nc(-c3ccccn3)cc(=O)[nH]2)NC(C)=C(C(=O)OC)C1c1cccc(Cl)c1Cl (centres unmarked) [Example 44]	7.80
CCOC(=O)C1=C(COCCNC2=NCCC2)NC(C)=C(C(=O)OC)C1c1ccccc1Cl (centres unmarked) [Example 20]	7.00
CCOC(=O)C1=C(COCCNc2nc(N)c3cc(OC)c(OC)cc3n2)NC(C)=C(C(=O)OC)C1c1ccccc1Cl (centres unmarked) [Example 34]	7.88
CCOC(=O)C1=C(COCCNC2=NCC(=O)N2)NC(C)=C(C(=O)OC)C1c1ccccc1Cl (centres unmarked) [Example 9]	7.90

SMILES	pIC50
CCOC(=O)C1=C(COCCNc2ccnc(N)n2)NC(C)=C(C(=O)OC)C1c1cccc(Cl)c1Cl (centres unmarked) [Example 40]	8.65
CCOC(=O)C1=C(COCCNc2ccc(S(=O)(=O)N(C)C)cn2)NC(C)=C(C(=O)OC)C1c1cccc(Cl)c1Cl (centres unmarked) [Example 47]	8.90
CCOC(=O)C1=C(COCCNc2nccc(=O)[nH]2)NC(C)=C(C(=O)OC)C1c1ccccc1Cl (centres unmarked) [Example 8, 4-(2-Chlorophenyl)-3-ethoxycarbonyl-5-methoxycarbonyl-6-methyl-2-[2-(3,4-dihydro-4-oxo-pyrimidin-2-ylamino)ethoxymethyl]-1,4-dihydropyridine]	7.98
CCOC(=O)C1=C(COCCNc2cc(=O)[nH]cn2)NC(C)=C(C(=O)OC)C1c1cccc(C(F)(F)F)c1Cl (centres unmarked) [Example 60]	7.35
CCOC(=O)C1=C(COCCNc2noc(=O)[nH]2)NC(C)=C(C(=O)OC)C1c1cccc(Cl)c1Cl (centres unmarked) [Example 78, 2-[2-(4,5-Dihydro-5-oxo-1,2,4-oxadiazol-3-ylamino)ethoxymethyl]-4-(2,3-dichlorophenyl)-3-ethoxycarbonyl-5-methoxycarbonyl-6-methyl-1,4-dihydropyridinemonohydrate]	8.64
CCOC(=O)C1=C(COCCNc2cc[nH]c(=O)n2)NC(C)=C(C(=O)OC)C1c1ccccc1Cl (centres unmarked) [Example 12]	7.54
CCOC(=O)C1=C(COCCNc2nc3ccccc3s2)NC(C)=C(C(=O)OC)C1c1ccccc1Cl (centres unmarked) [Example 19]	8.00
CCOC(=O)C1=C(COCCNc2cc(Cl)ncn2)NC(C)=C(C(=O)OC)C1c1ccccc1Cl (centres unmarked) [Example 31]	7.75
CCOC(=O)C1=C(COCCNc2nccs2)NC(C)=C(C(=O)OC)C1c1ccccc1Cl (centres unmarked) [Example 71, 4-(2-Chlorophenyl)-3-ethoxycarbonyl-5-methoxycarbonyl-6-methyl-2-[2-(thiazol-2-ylamino)ethoxymethyl]-1,4-dihydropyridine]	8.00
CCOC(=O)C1=C(COCCNc2ccnc(Cl)n2)NC(C)=C(C(=O)OC)C1c1ccccc1Cl (centres unmarked) [Example 18]	7.50
CCOC(=O)C1=C(COCCNc2cncc(Cl)n2)NC(C)=C(C(=O)OC)C1c1ccccc1Cl (centres unmarked) [Example 33]	8.20
CCOC(=O)C1=C(COCCNC2=NCCN2)NC(C)=C(C(=O)OC)C1c1ccccc1Cl (centres unmarked) [Example 21]	7.00
CCOC(=O)C1=C(COCCNc2cc(N3CCN(C)CC3)ncn2)NC(C)=C(C(=O)OC)C1c1cccc(Cl)c1Cl (centres unmarked) [Example 81]	8.50
CCOC(=O)C1=C(COCCNc2nc3cc(OC)c(OC)cc3c(=O)[nH]2)NC(C)=C(C(=O)OC)C1c1ccccc1Cl (centres unmarked) [Example 17]	7.88
CCOC(=O)C1=C(COCCNc2nc(N)n[nH]2)NC(C)=C(C(=O)OC)C1c1cccc(C(F)(F)F)c1Cl (centres unmarked) [Example 2, 2-[2-(3-Amino-1H-1,2,4-triazol-5-ylamino)ethoxymethyl]-4-(2-chloro-3-trifluoromethylphenyl)-3-ethoxycarbonyl-5-methoxycarbonyl-6-methyl-1,4-dihydropyridine]	8.64
CCOC(=O)C1=C(COCCNc2c[n+]([O-])ccn2)NC(C)=C(C(=O)OC)C1c1cccc(Cl)c1Cl (centres unmarked) [Example 50, N-oxide of 4-(2,3-dichlorophenyl)-3-ethoxycarbonyl-5-methoxycarbonyl-6-methyl-2-[2-(pyrazin-2-ylamino)ethoxymethyl]-1,4-dihydropyridine]	8.87
CCOC(=O)C1=C(COCCNc2cc(NC)ncn2)NC(C)=C(C(=O)OC)C1c1cccc(Cl)c1Cl (centres unmarked) [Example 83]	8.50
